Reference: patent EP4702986A1, “POLYPEPTIDE AND USE THEREOF” (Biocells (Beijing) Biotech Co., Ltd., priority 2023, dated 2024)
Read-outs that look alike come from different tables or passages of the source. Numbered stars: 1 amine (or outer) side, 2 acyl side, 3 side chain; on linkers, the order of the positions; unused ones are H or OH. Side chains are listed from the residue outwards. Ends that are not written are not given here. Peptide text beside a SMILES is read from it. * marks the point of attachment. X1 = C[C@H](NC(=O)[C@@H]1CCCN1C(=O)[C@@H](N)CSC1CC(=O)N(CCC(=O)*)C1=O)C(=O)N[C@@H](CCCCN)C(=O)O; C18 diacid = O=C(O)CCCCCCCCCCCCCCCCC(=O)*; γGlu = O=C(O)[C@H](CCC(=O)[*:2])N[*:1]; Fumaroyl = O=C(O)/C=C/C(=O)*; Suc = O=C(CCC(=O)[*:2])[*:1]; Lauroyl = CCCCCCCCCCCC(=O)*; AEEA = NCCOCCOCC(=O)O

Tests used:
[1] = molecular target: T1, human ETB receptor (Homo sapiens, UniProt P24530); experiment: Determination of EC50 of polypeptides against human ETB receptor (IP-One Gq kit); format: cell-based
T1 construct: expressed in transfected cells; host or cells: 293T-17 cells, transient transfection
T1 sequence (P24530 27-442): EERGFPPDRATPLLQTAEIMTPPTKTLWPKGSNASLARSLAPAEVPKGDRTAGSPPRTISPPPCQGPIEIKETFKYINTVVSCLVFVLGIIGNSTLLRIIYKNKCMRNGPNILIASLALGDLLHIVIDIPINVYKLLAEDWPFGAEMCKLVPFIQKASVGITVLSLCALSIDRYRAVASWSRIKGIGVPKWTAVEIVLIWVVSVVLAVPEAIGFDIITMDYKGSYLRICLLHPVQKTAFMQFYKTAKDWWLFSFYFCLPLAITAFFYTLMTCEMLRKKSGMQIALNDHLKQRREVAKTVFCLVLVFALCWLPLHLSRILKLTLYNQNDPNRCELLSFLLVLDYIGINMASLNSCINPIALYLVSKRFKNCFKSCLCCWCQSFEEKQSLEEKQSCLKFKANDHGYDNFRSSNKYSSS
Procedure: 293T-17 cells were seeded at a density of 650,000 cells per well in a 6-well plate and cultured overnight in an incubator at 37°C and 5% CO2. Afterward, the cells were transfected with an expression vector, PCDNA3.1-hETB which contained a human ETB receptor gene, at a plasmid concentration of 2.5 µg per well. The cells were further cultured for 48 hours, and green fluorescence expression was observed under a fluorescence microscope. The cells were then digested with trypsin and counted. The activity of compounds on the human ETB receptor was determined with the IP-One Gq kit from Cisbio Bioassays. The cells were suspended in Stim Buffer provided in the kit and the cell suspension was added to a 96-well detection plate at 7 µL cell suspension (containing 30,000 cells) per well. The polypeptides to be tested (prepared according to the Preparation Example of the invention) were diluted in Stim B to obtain a gradient of 11 concentration points. For each concentration point, the polypeptides to be tested were dissolved in Stim B to be at a concentration of 2×, and added at 7 µL to the test cells, while 7 µL of PBS solution was added to the cells in the negative control wells. The plate was sealed and incubated at 37°C for 1 hour in a cell culture incubator. Detection wells, positive control wells containing human endothelin ET1 (ET1: […] (C1-C15,C3-C11)), and PBS control wells were each added with 3 µL of IP1 d2 working solution and 3 µL of IP1 Tb cryptotate Antibody working solution. The plate was then sealed and incubated in the dark at room temperature (25°C±5°C) for 1 hour. The plate seal was removed, and the […] at 665 nm and 620 nm was measured with an ID5 microplate reader. The ratio of the acceptor emission signal to the donor emission signal, i.e., (signal at 665 nm/signal at 620 nm)×10^4, was calculated for each well. With F representing the average value of values of signal at 665 nm/signal at 620 nm for the test samples at various concentrations, a scatterplot was plotted, where the abscissa represented the F value, and the ordinate represented the logarithmic value of the peptide concentration. A curve was fitted with an appropriate method to calculate EC50 values of the polypeptides against the human ETB receptor. Another method was provided for fitting a curve where activation rate of the test polypeptides at each concentration relative to the positive control sample human endothelin ET1 was calculated first with the method in Example 1, and a scatterplot was plotted, where the abscissa represented the activation rate, and the ordinate represented the logarithmic value of the polypeptide concentration. A curve was fitted with an appropriate method to calculate the EC50 values of the polypeptides against the human ETB receptor.

[2] = Determination of half-lives of polypeptides (plasma, LC-MS); settings: for half-life: C57 BL/6, mouse, plasma, iv; for AUClast 0-30 min: C57 BL/6 mice, i.v., dosage per compound 0.48, 0.96 or 1 mpk
[3] = molecular target: T1, human ETB receptor; experiment: Screening of polypeptides for activity on human ETB receptor (IP-One Gq kit, % of positive control IRL1620); format: cell-based
Procedure: 293T-17 cells were seeded at a density of 650,000 cells per well in a 6-well plate and cultured overnight in an incubator at 37°C and 5% CO2. Afterward, the cells were transfected with an expression vector, PCDNA3.1-hETB which contained a human ETB receptor gene, at a plasmid concentration of 2.5 µg per well. The cells were further cultured for 48 hours, and green fluorescence expression was observed under a fluorescence microscope. The cells were then digested with trypsin and counted. The activity of compounds on the human ETB receptor was determined with the IP-One Gq kit from Cisbio Bioassays. The cells were suspended in Stim Buffer provided in the kit and the cell suspension was added to a 96-well detection plate at 7 µL cell suspension (containing 30,000 cells) per well. The polypeptides to be screened for activity (prepared according to the Preparation Example of the invention) and polypeptide IRL1620 as positive control were dissolved in Stim B to be at a concentration of 2×, and 7 µL was added to the test cells, while 7 µL of PBS solution was added to the cells in the negative control wells. IRL1620 was used as the positive control polypeptide. The plate was sealed and incubated at 37°C for 1 hour in a cell culture incubator. Test wells, positive control wells, and PBS control wells were each added with 3 µL of IP1 d2 working solution and 3 µL of IP1 Tb cryptotate Antibody working solution. The plate was then sealed and incubated in the dark at room temperature (25°C±5°C) for 1 hour. The plate seal was removed, and the […] at 665 nm and 620 nm was measured with an ID5 microplate reader. The ratio of the acceptor emission signal to the donor emission signal, i.e., the value of (signal at 665 nm/signal at 620 nm)×10^4, was calculated for each well. With F1 representing the average value of values of signal at 665 nm/signal at 620 nm determined for the test sample at a specific concentration, F2 representing the average value of values of signal at 665 nm/signal at 620 nm determined for the positive control IRL1620 at the same concentration, and T1 representing the average value of values of signal at 665 nm/signal at 620 nm determined for the PBS negative control, the percentage of activity of the test polypeptide sample relative to the positive control sample IRL1620 is equal to (F1-T1)×100/(F2-T1). hETB sequence (NCBI accession number NM_000115.5).

[4] = 293T-17 cells transfected with PCDNA3.1-hETB, read-out: hETBR agonist activity EC50/nM

| Compound | half-life [2] [min] | AUClast 0-30 min [2] [ng·h/mL] | hETBR agonist activity, percentage of activity relative to IRL1620 [3] [%@100nM] | hETBR agonist activity, percentage of activity relative to IRL1620 ([3]; @10nM) [%@10nM] | further results |
| --- | --- | --- | --- | --- | --- |
| CCCCCCCCCCCC(=O)N[C@@H](CCC(=O)NCCOCCOCC(=O)NCCCC[C@H](NC(=O)[C@H](Cc1c[nH]cn1)NC(=O)[C@H](C)NC(=O)[C@H](Cc1ccccc1)NC(=O)[C@H](Cc1ccc(O)cc1)NC(=O)[C@@H](NC(=O)[C@H](C)NC(=O)[C@H](CCC(=O)O)NC(=O)[C@H](CCC(=O)O)NC(=O)[C@H](CC(=O)O)NC(=O)/C=C/C(=O)O)C(C)C)C(=O)N[C@@H](CC(=O)O)C(=O)N[C@H](C(=O)N[C@H](C(=O)N[C@@H](Cc1c[nH]c2ccccc12)C(=O)O)[C@@H](C)CC)C(C)C)C(=O)O [BX229-Na] (Fumaroyl-DEEAVYFAHK([AEEA-γGlu-Lauroyl])DVIW-OH) | – | – | – | – | EC50 [1, 4]: 16.7 nM |
| CC[C@H](C)[C@H](NC(=O)[C@H](CC(=O)O)NC(=O)[C@H](CCCCNC(=O)COCCOCCNC(=O)COCCOCCNC(=O)CC[C@H](NC(=O)CCCCCCCCCCCCCCCCC(=O)O)C(=O)O)NC(=O)[C@H](Cc1c[nH]cn1)NC(=O)[C@H](C)NC(=O)[C@H](Cc1ccccc1)NC(=O)[C@H](Cc1ccc(O)cc1)NC(=O)[C@@H](NC(=O)[C@H](C)NC(=O)[C@H](CCC(=O)O)NC(=O)[C@H](CCC(=O)O)NC(=O)[C@H](CC(=O)O)NC(=O)/C=C/C(=O)O)C(C)C)C(=O)N[C@H](C(=O)N[C@@H](Cc1c[nH]c2ccccc12)C(=O)O)[C@@H](C)CC [BX-34] (Fumaroyl-DEEAVYFAHK([AEEA-AEEA-γGlu-C18 diacid])DIIW-OH) | 63 | 7736 | – | – | – |
| CC[C@H](C)[C@H](NC(=O)[C@H](CC(=O)O)NC(=O)[C@H](CCCCNC(=O)COCCOCCNC(=O)CCN1C(=O)CC(SC[C@H](N)C(=O)N2CCC[C@H]2C(=O)N[C@@H](C)C(=O)N[C@@H](CCCCN)C(=O)O)C1=O)NC(=O)[C@H](Cc1c[nH]cn1)NC(=O)[C@H](C)NC(=O)[C@H](Cc1ccccc1)NC(=O)[C@H](Cc1ccc(O)cc1)NC(=O)[C@@H](NC(=O)[C@H](C)NC(=O)[C@H](CCC(=O)O)NC(=O)[C@H](CCC(=O)O)NC(=O)[C@H](CC(=O)O)NC(=O)/C=C/C(=O)O)C(C)C)C(=O)N[C@H](C(=O)N[C@@H](Cc1c[nH]c2ccccc12)C(=O)O)[C@@H](C)CC (stereo partly drawn) [BX-95] (Fumaroyl-DEEAVYFAHK([AEEA-X1])DIIW-OH) | – | – | – | – | EC50 [1, 4]: 45.6 nM |
| CCCCCCCCCCCC(=O)N[C@@H](CCC(=O)NCCOCCOCC(=O)NCCCC[C@H](NC(=O)[C@H](Cc1c[nH]cn1)NC(=O)[C@H](C)NC(=O)[C@H](Cc1ccccc1)NC(=O)[C@H](Cc1ccc(O)cc1)NC(=O)[C@@H](NC(=O)[C@H](C)NC(=O)[C@H](CCC(=O)O)NC(=O)[C@H](CCC(=O)O)NC(=O)[C@H](CC(=O)O)NC(=O)/C=C/C(=O)O)C(C)C)C(=O)N[C@@H](CC(=O)O)C(=O)N[C@H](C(=O)N[C@H](C(=O)N[C@@H](Cc1c[nH]c2ccccc12)C(=O)O)[C@@H](C)CC)[C@@H](C)CC)C(=O)O [BX-225] (Fumaroyl-DEEAVYFAHK([AEEA-γGlu-Lauroyl])DIIW-OH) | 37 | 4981 | – | – | – |
| CC[C@H](C)[C@H](NC(=O)[C@H](CC(=O)O)NC(=O)[C@H](CC(C)C)NC(=O)[C@H](Cc1c[nH]cn1)NC(=O)[C@H](C)NC(=O)[C@H](Cc1ccccc1)NC(=O)[C@H](Cc1ccc(O)cc1)NC(=O)[C@@H](NC(=O)[C@H](C)NC(=O)[C@H](CCC(=O)O)NC(=O)[C@H](CCC(=O)O)NC(=O)[C@H](CC(=O)O)NC(=O)CCC(=O)O)C(C)C)C(=O)N[C@H](C(=O)N[C@@H](Cc1c[nH]c2ccccc12)C(=O)O)[C@@H](C)CC [IRL1620, reference compound] (Suc-DEEAVYFAHLDIIW-OH) | < 2.6 | 130 | – | – | EC50 [1]: 1.33 nM |
| Fum-DEEEVYFAHKDIIW (Fumaroyl-DEEEVYFAHKDIIW) [BX-52] | – | – | 121.00 | 145.60 | – |
| Fum-DEEEVYFAHOrnDIIW [BX-59] | – | – | 93.46 | 125.64 | – |
| Suc-DE cyclo(CEEC)YFAHKDIIW (Suc-DECEECYFAHKDIIW; not fully specified (bridges); printed as Suc-DE cyclo(CEEC)YFAHKDIIW; also: cyclo(CEEC) in N-terminal extension, bond type not given here) [BX-57] | – | – | 121.58 | 86.20 | – |
